According to patent publication US9962465B2, “Amelogenin-chitosan hydrogel for dentin hypersensitivity” (UNIVERSITY OF SOUTHERN CALIFORNIA, priority 2015, dated 2018):

How the values were obtained:
[1] = Nanoindentation test of the newly regenerated layer (modulus, hardness); parameters: species or system Human; conditions: for mechanical properties of the newly formed layer compared with healthy dentin: peptide only treatment; for surface hardness of dentin lesions: peptide only, 5 days
Description: Human third molars were sectioned transversally into 2 mm thick slices at the mid-coronal region of the tooth. A window of sound dentin measuring 2×2 mm each was delineated by applying two coats of acid-resistant nail varnish on the tooth surfaces. To mimic carious lesions, the samples were immersed in a demineralizing solution (pH 4.6, 30 ml) at 37° C. for 3 days. Twenty μl of peptide only (LRAP, P32, P26) and peptide-chitosan hydrogel (200 μg/ml) were applied separately on the demineralized windows (2 applications: Days 1 & 5) and the tooth slices were immersed in artificial saliva (pH 7, 5 ml) at 37° C. for 5 and 10 days. The artificial saliva includes 1.2 mM Ca^2+, 0.2 mM Mg^2+ 0.7 mM H2PO4^−, 16 mM KCl, 4.5 mM NH4Cl and 50 mM Hepes in water. The artificial saliva solution (5 ml) was changed daily from days 1-10.
FIGS. 18A, 18B, 18C, and 18D provide nanoindentation test results showing changes in the modulus (A,B) and hardness (C, D) of the newly regenerated layer after being treated with peptide only and peptide-chitosan hydrogel for 5 and 10 days. Treatment with LRAP and P32 restored surface hardness of dentin lesions in 5 days.

[2] = TEM of peptide self-assembly; type: physicochemical; conditions: pH 7.4, HEPES buffer, 25° C.
Source text: (Ref: doi:10.1016/j.jsb.2011.07.016).

| Sequence | mechanical properties of the newly formed layer compared with healthy dentin [1] | surface hardness of dentin lesions [1] | TEM assembly morphology [2] |
| --- | --- | --- | --- |
| MPLPPHPGHPGYINFSYEVLTPLKWYQSIRPPPLPPMLPDLTLEAWPSTDKTKREEVD (listed as Homo sapiens) [LRAP, leucine rich amelogenin polypeptide, alternatively spliced isoform of amelogenin] | superior mechanical properties than healthy dentin | restored |  |
| MPLPSYEVLTPLKWPVHPMQPSTDKTKREEVD (Amelogenin-derived polypeptide) [Peptide P32, Artificial amelogenin-derived polypeptide] | superior mechanical properties than healthy dentin | restored | uniformly-dispersed spherical assemblies |
